As a reminder, the inhibition is the relative decrease from the control value, in per cent. A word on the IC50: it is the midpoint of a concentration-inhibition curve.

Where two headings read alike, the source gives them in different places.

Experiment [1] has as its system normotensive anesthetized rat. Nature of the experiment: In vivo mean arterial pressure and heart rate in normotensive anesthetized rat. As to conditions: iv. As to the method:
Normotensive rats were anesthetized with sodium pentobarbital (50 mg/kg, j.p.) and placed on a heated surgical table. Cannulas were inserted into the femoral artery and […] to allow the measurement of arterial pressure and to facilitate the intravenous administration of test compounds. The animals was allowed to equilibrate for 10 minutes after surgery. Mean arterial pressure was continuously measured and recorded and heart rate was monitored using the arterial pressure pulse to trigger a cardiotachometer. After baseline parameters were established and recorded, increasing doses (1, 3, 10, 30, 100, 300 and 1000 μg/kg) of the compound of the invention to be tested were administered intravenously. Maximal changes in the cardiovascular parameters were observed after each dose of the adenosine agonist. Only one compound was administered per rat.

In another experiment the test system is swine coronary arteries. Nature of the experiment: In vitro vasorelaxation in isolated swine coronary arteries (PGF2α-contracted rings). Format: cell-based. The following applies: Sus scrofa; for EC50: Table II; for IC50: read-out: Vasorelaxation (IC50). As to the method:
Swine coronary arteries were obtained from a local slaughter house, dissected carefully and cleaned of fat, blood and adhering tissue. Rings approximately 2-3 mm wide were cut and transferred to water-jacketed tissue baths (10 ml) filled with warm (37° C.), oxygenated (O2 /CO2 :95%/5%) Krebs-Henseleit buffer and mounted on L-shaped hooks between stainless steel rods and a force transducer. […] Rings were equilibrated for 90 minutes with frequent buffer changes at a resting tension of 5 g In order to assure optimal tension development, arterial rings were primed twice with 36 mM KCl and once with 10 μm. PGF2α, before being exposed to 3 μM PGF2α. […] Tension achieved with 3 μM PGF2α was considered .equivalent to 100%; all other values were expressed as a percentage of that maximum.

In another experiment the test system is rat adipocytes. Nature of the experiment: In vitro lipolysis assay in rat adipocytes (glycerol production). Format: cell-based. As to conditions: for EC50 / inhibition at 0.1 µM / inhibition at 1 µM: Rattus norvegicus, Adipocyte; for EC50: read-out: EC50 (50% inhibition of glycerol production); for inhibition at 0.1 µM / inhibition at 1 µM: read-out: % Inhibition of glycerol production. As for the experimental part:
Adipose tissue is removed from anesthetized rats and rinsed twice in incubation medium (2.09 g sodium bicarbonate and 0.04 g EDTA, disodium salt, in 1 L Krebs buffer). Each rat (300-350 g) yields approximately 4 ml of adipose tissue. The adipose tissue (35 ml) is cut into small pieces with scissors and washed with incubation medium (50 ml). The mixture is poured into the barrel of a 50 ml syringe to which is attached a short piece of clamped tubing instead of a needle. The aqueous phase is allowed to drain. A second wash with incubation medium is passed through the syringe. The tissue is added to 50 ml of collagenase solution (collagenase(90 mg), bovine serum albumin (BSA) (500 mg), and 0.1 M calcium chloride solution (1 ml), in incubation medium (50 ml)) in a 1 L bottle. The mixture is shaken in an environmental at 37° C. for about 60 minutes under an atmosphere of 95% oxygen/5% carbon dioxide to effect digestion of the tissue. The dispersed cells are poured through 2 layers of cheese cloth into a 100 ml plastic beaker. The undigested clumps in the cloth are rinsed once with incubation medium (20 ml). The cells in the beaker are centrifuged in 2 plastic tubes for 30 seconds at room temperature at 300 rpm. The aqueous phase is aspirated from beneath the loosely packed layer of floating fat cells and discarded. The adipocytes are gently poured into a 250 ml plastic beaker containing 100 ml of rinse solution (1 g BSA per 100 ml incubation medium). After gentle stirring the centrifugation step is repeated. Another wash with rinse solution follows. The cells are pooled and their volume is estimated with a graduated cylinder. The adipocytes are diluted in twice their volume of assay buffer (incubation medium (120 ml), BSA (1.2 g), pyruvic acid (13 mg)).
The assay is performed in 20 ml plastic scintillation vials and the total assay volume is 4.2 ml. Assay buffer (2.5 ml), diluted adipocytes (1.5 ml), and a solution of the compound to be tested (12.3 μL) adenosine agonist (12.3 μl; varying concentration) is incubated in the environmental shaker for 15 minutes, then the reaction is started with norepinephrine solution (41.2 μL) (10 nM, in a carrier solution containing water (100 ml), BSA (4 mg), and 0.1 M EDTA (20 I. LL))and adenosine deaminase (1 μg/ml, 41.2 μl). After sixty minutes in the shaker the reaction is terminated by putting the vials on ice. […] The hard lipid layer is removed by aspiration and the aqueous layer is assayed for glycerol (400 μl of sample). The positive control is done in the absence of any adenosine agonist, substituting water in place of the solution to be tested.

Where [2] appears, read: dose lowering heart rate by 25%, read-out: Blood Press/Heart Rate Anesthetized Rat HR/ED25.
[3] abbreviates: dose lowering mean arterial pressure by 25%, read-out: Blood Press/Heart Rate Anesthetized Rat MAP/ED25.
Where [4] appears, read: 50% reduction in tension, 3 μM PGF2α, read-out: Vasorelaxation in Swine Coronary Artery/IC50.
Where [5] appears, read: read-out: Vasorelaxation in Swine Coronary Artery/IC50 (μM), 50% reduction in tension, 3 μM PGF2α.
[6] abbreviates: 0.1 μM, versus positive control.

Regarding `OC[C@H]1O[C@@H](n2cnc3c(N[C@@H]4CC=CC[C@H]4c4ccsc4)ncnc32)[C@H](O)[C@@H]1O` (relative stereo) [Example 8, N^6-[trans-2-(thiophen-3-yl)-cyclohex-4-en-1-yl]adenosine], the ED25 in experiment [1] (setting [2]) was 0.023 mg/kg; in experiment [1] (setting [3]), 0.01 mg/kg. In the case of `CCNC(=O)[C@H]1C[C@@H](n2cnc3c(NCCc4nccs4)ncnc32)[C@H](O)[C@@H]1O` (relative stereo) [Example 25, (±)-N^6-[2-(2"-thiazolyl)ethyl]-carbocyclic adenosine-5'-N-ethyl carboxamide], the EC50 with swine coronary arteries (setting [4]) was 0.64 µM. `CCNC(=O)[C@H]1C[C@@H](n2cnc3c(NCCc4cccs4)ccnc32)[C@H](O)[C@@H]1O` (relative stereo) [Example 30, (±)-N6-[1-(thiopheny-2-yl)ethan-2-yl]-N'-1-deazaaristeromycin-5'-N-ethyl carboxamide]: the results for the ED25 in experiment [1] (setting [2]) and in experiment [1] (setting [3]) were > 0.01 mg/kg and 0.006 mg/kg, respectively. The EC50 in the experiment on swine coronary arteries (setting [5]) is 12.1 µM. Take `CO[C@@H]1[C@H](O)[C@@H](CO)O[C@H]1n1cnc2c(N[C@@H]3CC=CC[C@H]3c3cccs3)ncnc21` (relative stereo) [Example 49, N^6-[trans-5-(2-thienyl)cyclohex-1-en-4-yl]-2'-O-methyladenosine]: the EC50 was found to be 18.6 nM with rat adipocytes and 9.81 µM in the experiment with swine coronary arteries (setting [5]). In the experiment with rat adipocytes (setting [6]), the inhibition at 0.1 µM amounted to 85%.

As to `CCNC(=O)[C@H]1O[C@@H](n2cnc3c(NC4CC=CCC4c4cccs4)ncnc32)[C@H](O)[C@@H]1O` (single isomer, unassigned) [Example 5, N6-[trans-2-(thiophen-2-yl)cyclohex-4-en-l-yl]adenosine-5'-N-ethylcarboxamide], the EC50 in the experiment with swine coronary arteries (setting [5]) worked out at 0.068 µM. `CCNC(=O)[C@H]1O[C@@H](n2cnc3c(N)nc(NCCc4ccc(CCC(=O)O)cc4)nc32)[C@H](O)[C@@H]1O` [CGS21680, reference compound]: the inhibition at 1 µM in the experiment with rat adipocytes was found to be 0%. For the same molecule, in the experiment with rat adipocytes (in words), the antilipolytic activity entry is on record as “do not exhibit antilipolytic activity”. In addition, the 50% inhibitory concentration (IC50) in the experiment with swine coronary arteries amounted to 80 nM. `OC[C@H]1O[C@@H](n2cnc3c(NC4CCCC4)ncnc32)[C@H](O)[C@@H]1O` [CPA, N-cyclopentyladenosine, reference compound]: in the experiment with rat adipocytes, the inhibition at 0.1 µM worked out at 97%, the inhibition at 1 µM amounted to 100% and the EC50 came to 0.31 nM. The IC50 in the experiment with swine coronary arteries stood at 3180 nM. Regarding `CCNC(=O)[C@H]1C[C@@H](n2cnc3c(N[C@H](C)Cc4ccc(Cl)s4)[n+]([O-])cnc32)[C@H](O)[C@@H]1O` [Example 35, (2S)-2α,3α-dihydroxy-4β-[N6-[2-(5-chloro-2-thienyl)-(1R)-1-methylethyl]amino-9-adenyl]cyclopentane-1β-N-ethylcarboxamide-N^1-oxide], the EC50 in the experiment with swine coronary arteries (setting [4]) came to 3.3 µM. Still for that read-out and setting: under `CCNC(=O)[C@H]1C[C@@H](n2cnc3c(NC(CC)Cc4sccc4Cl)ccnc32)[C@H](O)[C@@H]1O` (stereo partly drawn) [Example 37, [1S-[1α,2β,3β,4α]]-4-[7-[[2-(3-chloro-2-thienyl)-1-ethylethyl]amino]-3 H-imidazo[4,5-b]pyridin-3-yl]-N-ethyl-2,3-dihydroxycyclopentane-carboxamide] stands 0.45 µM; under `CCNC(=O)[C@H]1C[C@@H](n2cnc3c(NC(Cc4cccs4)C(C)C)ccnc32)[C@H](O)[C@@H]1O` (stereo partly drawn) [Example 38, [1S-[1α,2β,3β,4α]]-4-[7-[[2-(2-thienyl)-1-isopropylethyl]amino]-3 H-imidazo[4,5-b]pyridin-3-yl]-N-ethyl-2,3-dihydroxycyclopentanecarboxamide], 0.47 µM; under `CCNC(=O)[C@H]1C[C@@H](n2cnc3c(N[C@H](C)Cc4cccs4)ccnc32)[C@H](O)[C@@H]1O` [Example 40, [1S-[1α,2β,3β,4α(S*)]]-4-[7-[[2-(2-thienyl)-1-methylethyl]amino]-3 H-imidazo[4,5-b]pyridin-3-yl]-N-ethyl-2,3-dihydroxycyclopentane-carboxamide], 0.283 µM. Regarding `CCNC(=O)[C@H]1C[C@@H](n2cnc3c(N[C@H](CC)Cc4ccc(Cl)s4)ccnc32)[C@H](O)[C@@H]1O` [Example 41, [1S-[1α,2β,3β,4α]]-4-[7-[[2-(5-chloro-2-thienyl)-1-ethylethyl]amino]-3 H-imidazo[4,5-b]pyridin-3-yl]-N-ethyl-2,3-dihydroxycyclopentane-carboxamide], the inhibition at 0.1 µM in the experiment with rat adipocytes (setting [6]) stood at 88%. Turning to `CCNC(=O)[C@H]1C[C@@H](n2cnc3c(N[C@H](C)Cc4ccc(Cl)s4)ncnc32)[C@H](OC(=O)OC)[C@@H]1OC(=O)OC` [Example 42, (2S)-2α,3α-bis-methoxycarbonyloxy-4β-[N6-[2-(5-chloro-2-thienyl)-(1R)-1-methylethyl]amino-9-adenyl]cyclopentane-1β-N-ethylcarboxamide], the EC50 in the experiment on swine coronary arteries (setting [5]) turned out to be 2.44 µM. As to `CCNC(=O)[C@H]1C[C@@H](n2cnc3c(N[C@H](C)Cc4ccc(Cl)s4)ncnc32)[C@@H]2OC(OCC)O[C@@H]21` (stereo partly drawn) [Example 43, (2S)-2α,3α-dihydroxy-4β-[N6-[2-(5-chloro-2-thienyl)-(1R)-1-methylethyl]amino-9-adenyl]cyclopentane-1β-N-ethylcarboxamide ethoxymethylene acetal], the EC50 in the experiment on swine coronary arteries (setting [5]) came out at 7.83 µM. On to `CCNC(=O)[C@H]1C[C@@H](n2cnc3c(N[C@H](C)Cc4ccc(Cl)s4)ncnc32)[C@H](OC(=O)NC)[C@@H]1OC(=O)NC` [Example 45, (2S)-2α,3α-bis-methylcarbamoyloxy-4β-[N6-[2-(5-chloro-2-thienyl)-(1R)-1-methylethyl]amino-9-adenyl]cyclopentane-1β-N-ethylcarboxamide], for which the EC50 in the experiment on swine coronary arteries (setting [4]) came out at 4.1 µM. Turning to `CCNC(=O)[C@H]1C[C@@H](n2cnc3c(N[C@H](C)Cc4ccc(Cl)s4)ncnc32)[C@@H]2OC(=S)O[C@@H]21` [Example 46, (2S)-2α,3α-dihydroxy-4β-[N6-[2-(5-chloro-2-thienyl)-(1R)-1-methylethyl]amino-9-adenyl]cyclopentane-1β-N-ethylcarboxamide-2,3-thiocarbonate], the EC50 in the experiment on rat adipocytes (unit nM in cell) turned out to be 4 nM; with swine coronary arteries (setting [5]), 3.52 µM. For `CO[C@@H]1[C@H](O)[C@@H](CO)O[C@H]1n1cnc2c(N[C@H](C)Cc3sccc3Cl)ncnc21` [Example 47, N^6-[2-(3-chloro-2-thienyl)-(1R)-1-methylethyl]-2'-O-methyladenosine], the results for the EC50 with rat adipocytes (unit nM in cell) and in the experiment with swine coronary arteries (setting [4]) were 0.63 nM and 5.7 µM, respectively. The inhibition at 0.1 µM in the experiment on rat adipocytes (setting [6]) turned out to be 94%. In the case of `CO[C@@H]1[C@H](O)[C@@H](CO)O[C@H]1n1cnc2c(N[C@H](C)Cc3ccc(Cl)s3)ncnc21` [Example 48, N^6-[2-(5-chloro-2-thienyl)-(1R)-1-methylethyl]-2'-O-methyladenosine], the EC50 in the experiment on rat adipocytes worked out at 1.86 nM. In addition, the inhibition at 0.1 µM in the experiment on rat adipocytes (setting [6]) turned out to be 88%. Regarding `CCNC(=O)[C@H]1O[C@@H](n2cnc3c(N)ncnc32)[C@H](O)[C@@H]1O` [NECA, N-ethylcarboxamidoadenosine, reference compound], the EC50 in the experiment with rat adipocytes was found to be 2.5 nM.

Source of the values: patent US5652366A, “DI (1R)-(-)camphosulfonic acid) salt, preparation thereof and use thereof” (Rhone-Poulenc Rorer Pharmaceuticals Inc., priority 1995, dated 1997).
